According to patent US20100029682A1, “NOVEL CHROMENE AND THIOCHROMENE CARBOXAMIDE DERIVATIVES, METHODS FOR PREPARING SAME AND THERAPEUTIC APPLICATIONS OF SAME” (priority 2006, published 2010):
Structures can show the parent of a compound that is named as a salt.

Row | Structure (SMILES) | melting point
1 | N#Cc1ccccc1N1CCN(CCCCNC(=O)C2=Cc3ccccc3OC2)CC1 (as salt: HCl) [Example 12, 2H-Chromene-3-carboxylic acid {4-[4-(2-cyanophenyl)-piperazin-1-yl]-butyl}-amide] | 194 °C
2 | Cc1ccccc1N1CCN(CCCCNC(=O)C2=Cc3ccccc3OC2)CC1 (as salt: HCl) [Example 9, 2H Chromene-3-carboxylic acid {4-[4-(2-methylphenyl)-piperazin-1-yl]-butyl}-amide] | 187 °C
3 | O=C(NCCCCN1CCN(c2ccc(C(F)(F)F)cc2)CC1)C1=Cc2ccccc2OC1 (as salt: HCl) [Example 15, 2-H-Chromene-3-carboxylic acid {4-[4-(4-trifluoromethylphenyl)-piperazin-1-yl]-butyl}-amide] | 261.9 °C
4 | O=C(NCCCCN1CCN(c2ccc([N+](=O)[O-])cc2)CC1)C1=Cc2ccccc2OC1 (as salt: HCl) [Example 18, 2H-Chromene 3 carboxylic acid {4-[4-(4-nitrophenyl)-piperazin-1-yl]-butyl}-amide] | 243 °C
5 | N#Cc1cccc(N2CCN(CCCCNC(=O)C3=Cc4ccccc4OC3)CC2)c1 (as salt: hydrochloride) [Example 14, 2H-Chromene-3-carboxylic acid {4-[4-(3-cyanophenyl)-piperazin-1-yl]-1-butyl}-amide] | 229 °C
6 | O=C(NCCCCN1CCN(c2cccc(C(F)(F)F)c2)CC1)C1=Cc2ccccc2OC1 (as salt: HCl) [Example 16, 2H-Chromene-3-carboxylic acid {4-[4-(3-trifluoromethylphenyl)-piperazin-1-yl]-butyl}-amide] | 234 °C
7 | O=C(NCCCCN1CCN(c2cccc(Cl)c2Cl)CC1)C1=Cc2ccccc2OC1 (as salt: hydrochloride) [Example 2, 2H-Chromene-3-carboxylic acid {4-[4-(2,3-dichlorophenyl)-piperazin-1-yl]-butyl}-amide] | 201 °C
8 | Cc1cccc(N2CCN(CCCCNC(=O)C3=Cc4ccccc4OC3)CC2)c1C (as salt: HCl) [Example 11, 2H-Chromene-3-carboxylic acid {4-[4-(2,3-dimethylphenyl)piperazin-1-yl]-butyl}-amide] | 202 °C
9 | O=C(NCCCCN1CCN(c2ccc(Cl)cc2)CC1)C1=Cc2ccccc2OC1 (as salt: HCl) [Example 5, 2H-Chromene-3-carboxylic acid {4-[4-(4-chlorophenyl)-piperazin-1-yl]-butyl}-amide] | 236 °C
10 | O=C(NCCCCN1CCN(c2ccccc2C(F)(F)F)CC1)C1=Cc2ccccc2OC1 (as salt: HCl) [Example 17, 2H-Chromene-3 carboxylic acid {4-[4-(2-trifluoromethylphenyl)-piperazin-1-yl]-butyl}-amide] | 161 °C
11 | O=C(NCCCCN1CCN(c2ccccc2Cl)CC1)C1=Cc2ccccc2OC1 (as salt: HCl) [Example 7, 2H-Chromene-3 carboxylic acid {4-[4-(2-chlorophenyl)-piperazin-1-yl]-butyl}-amide] | 201 °C
12 | COc1ccccc1N1CCN(CCCCNC(=O)C2=Cc3ccccc3OC2)CC1 (as salt: hydrochloride) [Example 1, 2H-Chromene 3-carboxylic acid {4-[4-(2-methoxyphenyl)-piperazin-1-yl]-butyl}-amide] | 224 °C
13 | CCOC(=O)c1cccc(N2CCN(CCCCNC(=O)C3=Cc4ccccc4OC3)CC2)c1 (as salt: hydrochloride) [Example 21, 3-(4-{4-[(2H-Chromene-3-carbonyl)-amino]-butyl}-piperazin-1-yl)-benzoic acid ethyl ester hydrochloride] | 229 °C
14 | O=C(NCCCCN1CCN(c2ccccc2)CC1)C1=Cc2ccccc2OC1 (as salt: HCl) [Example 4, 2H-Chromene-3-carboxylic acid {4-(4-phenylpiperazin-1-yl)-butyl}-amide] | 239 °C
15 | N#Cc1ccc(N2CCN(CCCCNC(=O)C3=Cc4ccccc4OC3)CC2)cc1 (as salt: HCl) [Example 13, 2H-Chromene-3-carboxylic acid {4-[4-(4-cyanophenyl)piperazin 1-yl]-butyl}-amide] | 212 °C
16 | O=C(NCCCCN1CCN(c2ccc(F)cc2)CC1)C1=Cc2ccccc2OC1 (as salt: HCl) [Example 8, 2H Chromene-3-carboxylic acid {4-[4-(4 fluorophenyl)-piperazin-1-yl]-butyl}-amide] | 243 °C
17 | O=C(NCCCCN1CCN(c2cccc(Cl)c2)CC1)C1=Cc2ccccc2OC1 (as salt: HCl) [Example 6, 2H-Chromene-3-carboxylic acid {4-[4-(3 chlorophenyl)-piperazin-1-yl]-butyl}-amide] | 216 °C
18 | O=C(NCCCCN1CCN(c2ccccc2F)CC1)C1=Cc2ccccc2OC1 (as salt: HCl) [Example 3, 2-H-Chromene-3-carboxylic acid {4-[4-(2-fluorophenyl)-piperazin-1-yl]-butyl}-amide] | 231 °C
19 | Cc1ccc(N2CCN(CCCCNC(=O)C3=Cc4ccccc4OC3)CC2)c(C)c1 (as salt: HCl) [Example 10, 2H-Chromene-3-carboxylic acid {4-[4-(2,4-dimethylphenyl)-piperazin-1-yl]-butyl}-amide] | 207 °C

Other lines, results leading:

Row | melting point | Structure (SMILES)
20 | 209 °C | N#Cc1cccc(N2CCN(CCCCNC(=O)C3=Cc4ccccc4SC3)CC2)c1 (as salt: HCl) [Example 35, 2H-Thiochromene-3-carboxylic acid {4-[4-(3-cyanophenyl)-piperazin-1-yl]-butyl}-amide]
21 | 189 °C | O=C(NCCCCN1CCN(c2ccccc2O)CC1)C1=Cc2ccccc2OC1 (as salt: HCl) [Example 58, 2H-Chromene-3-carboxylic acid {4-[4-(2-hydroxyphenyl)-piperazin-1-yl]-butyl}-amide]
22 | 215 °C | O=C(NCCCCN1CCN(c2cccc(Cl)c2Cl)CC1)C1=Cc2ccccc2SC1 (as salt: HCl) [Example 32, 2H-thiochromene-3-carboxylic acid {4-[4-(2,3-dichlorophenyl)piperazin-1-yl]-butyl}-amide]
23 | 237 °C | CCOC(=O)c1ccc(N2CCN(CCCCNC(=O)C3=Cc4ccccc4OC3)CC2)cc1 (as salt: hydrochloride) [Example 22, 4-(4-{4-[(2H-Chromene-3-carbonyl)-amino]-butyl}-piperazin-1-yl)-benzoic acid ethyl ester hydrochloride]
24 | 205 °C | COc1ccc(Br)c2c1OCC(C(=O)NCCCCN1CCN(c3cccc(Cl)c3Cl)CC1)=C2 (as salt: HCl) [Example 51, 5-Bromo 8 methoxy-2H-chromene-3-carboxylic acid {4-[4-(2,3-dichlorophenyl)-piperazin-1-yl]-butyl}-amide]
25 | 205 °C | COc1ccc2c(c1)C=C(C(=O)NCCCCN1CCN(c3cccc(Cl)c3Cl)CC1)CO2 (as salt: HCl) [Example 55, 6-Methoxy-2H-chromene-3-carboxylic acid {4-[4-(2,3-dichlorophenyl)-piperazin-1-yl]-butyl}-amide]
26 | 214 °C | O=C(NCCCCN1CCN(c2ccccc2F)CC1)C1=Cc2cc(Cl)ccc2OC1 (as salt: HCl) [Example 30, 6-Chloro-2H-chromene-3-carboxylic acid {4-[4-(2-fluorophenyl)-piperazin-1-yl]-butyl}-amide]
27 | 182 to 184 °C | O=C(NCCCCN1CCN(c2cccc(O)c2)CC1)C1=Cc2ccccc2SC1 (as salt: HCl) [Example 41, 2H-Thiochromene-3-carboxylic acid {4-[4-(3-hydroxyphenyl)-piperazin-1-yl]-butyl}-amide]
28 | 213 °C | COc1cc(OC)cc(N2CCN(CCCCNC(=O)C3=Cc4ccccc4OC3)CC2)c1 (as salt: hydrochloride) [Example 23, 2H-Chromene 3 carboxylic acid {4-[4-(3,5-dimethoxyphenyl)piperazin-1-yl]-butyl}-amide hydrochloride]
29 | 155 °C | COc1ccccc1N1CCN(CCCCNC(=O)C2=Cc3cc(Cl)ccc3OC2)CC1 (as salt: HCl) [Example 29, 6-Chloro-2H-chromene-3-carboxylic acid {4-[4-(2-methoxyphenyl)-piperazin-1-yl]-butyl}-amide]
30 | 194 °C | O=C(NCCCCN1CCN(c2cccc(CO)c2)CC1)C1=Cc2ccccc2OC1 (as salt: HCl) [Example 46, 2H-chromene-3-carboxylic acid {4-[4-(3-hydroxymethylphenyl)-piperazin-1-yl]-butyl}-amide]
31 | 208 °C | COc1ccccc1N1CCN(CCCCNC(=O)C2=Cc3ccccc3SC2)CC1 (as salt: HCl) [Example 34, 2H-Thiochromene-3-carboxylic acid {4-[4-(2-methoxyphenyl)piperazin-1-yl]-butyl}-amide]
32 | 155 °C | COc1ccc(Br)c2c1OCC(C(=O)NCCCCN1CCN(c3cccc(C#N)c3)CC1)=C2 (as salt: HCl) [Example 52, 5-Bromo-8-methoxy-2H-chromene-3-carboxylic acid {4-[4-(3-cyanophenyl)piperazin-1-yl]-butyl}-amide]
33 | 159 °C | COc1ccc2c(c1)C=C(C(=O)NCCCCN1CCN(c3cccc(C#N)c3)CC1)CO2 (as salt: HCl) [Example 57, 6-Methoxy-2H-chromene-3-carboxylic acid {4-[4-(3-cyanophenyl)-piperazin-1-yl]-butyl}-amide]
34 | 155 °C | CC1(C)Sc2ccccc2C=C1C(=O)NCCCCN1CCN(c2cccc(C#N)c2)CC1 (as salt: HCl) [Example 44, 2,2-Dimethyl-2H thiochromene-3-carboxylic acid {4-[4-(3-cyanophenyl)-piperazin-1-yl]-butyl}-amide]
35 | 120 °C (dec.) | N#Cc1cccc(N2CCN(CCCCNC(=O)C3=Cc4cc(Cl)ccc4OC3)CC2)c1 (as salt: HCl) [Example 31, 6-Chloro-2H-chromene-3-carboxylic acid {4-[4-(3-cyanophenyl)-piperazin-1-yl]-butyl}-amide]
36 | 214 °C | O=C(NCCCCN1CCN(c2cccc(Cl)c2Cl)CC1)C1=Cc2cc(Cl)ccc2OC1 (as salt: hydrochloride) [Example 28, 6-Chloro-2H-Chromene-3-carboxylic acid {4-[4-(2,3-dichlorophenyl)-piperazin-1-yl]-butyl}-amide]
